Like-named read-outs stand apart in the source and are kept apart here.
How the values were obtained:
Assay in all cases: Post-emergence efficacy, Method A
Assay type in all cases: in vivo
[1] = tested on: Amaranthus palmeri (AMAPA); conditions: evaluated after 13 days; for pest or weed control at 500 g/ha: Amaranthus palmeri, post-emergence, 312 h
Summary of the method: (§1)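 Visual damage score, 0 (no damage) to 100 (total), taken 13 d after spraying. Pot-grown plants at 14 d post-sowing received an aqueous spray from a 50 g/l acetone/IF50 solution diluted in 0.25% or 1% Empicol ESC70 + 1% ammonium sulphate; glasshouse 24/16 °C, 14 h light, 65% RH, watered twice daily.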

[2] = tested on: Chenopodium album (CHEAL); conditions: evaluated after 13 days; for pest or weed control at 500 g/ha: Chenopodium album, post-emergence, 312 h
Summary of the method: as §1

[3] = tested on: Digitaria sanguinalis (DIGSA); conditions: evaluated after 13 days; for pest or weed control at 500 g/ha: Digitaria sanguinalis, post-emergence, 312 h
Summary of the method: as §1

[4] = tested on: Echinochloa crus-galli (ECHCG); conditions: evaluated after 13 days; for pest or weed control at 500 g/ha: Echinochloa crus-galli, post-emergence, 312 h
Summary of the method: as §1

Eleusine indica (ELEIN) = conditions: evaluated after 13 days; for pest or weed control at 500 g/ha: Eleusine indica, post-emergence, 312 h
Summary of the method: as §1

[5] = tested on: Euphorbia heterophylla (EPHHL); conditions: evaluated after 13 days; for pest or weed control at 500 g/ha: Euphorbia heterophylla, post-emergence, 312 h
Summary of the method: as §1

[6] = tested on: Ipomoea hederacea (IPOHE); conditions: evaluated after 13 days; for pest or weed control at 500 g/ha: Ipomoea hederacea, post-emergence, 312 h
Summary of the method: as §1

Lolium perenne (LOLPE) = conditions: evaluated after 13 days; for pest or weed control at 500 g/ha: Lolium perenne, post-emergence, 312 h
Summary of the method: as §1

Setaria faberi (SETFA) = conditions: evaluated after 13 days; for pest or weed control at 500 g/ha: Setaria faberi, post-emergence, 312 h
Summary of the method: as §1

[7] = Application rate 500 g/Ha, 100=total damage to plant, 0=no damage to plant, read-out: Control of weed species after post-emergence application, AMAPA
[8] = Application rate 500 g/Ha, 100=total damage to plant, 0=no damage to plant, read-out: Control of weed species after post-emergence application, CHEAL
[9] = Application rate 500 g/Ha, 100=total damage to plant, 0=no damage to plant, read-out: Control of weed species after post-emergence application, DIGSA
[10] = Application rate 500 g/Ha, 100=total damage to plant, 0=no damage to plant, read-out: Control of weed species after post-emergence application, ECHCG
[11] = Application rate 500 g/Ha, 100=total damage to plant, 0=no damage to plant, read-out: Control of weed species after post-emergence application, ELEIN
[12] = Application rate 500 g/Ha, 100=total damage to plant, 0=no damage to plant, read-out: Control of weed species after post-emergence application, EPHHL
[13] = Application rate 500 g/Ha, 100=total damage to plant, 0=no damage to plant, read-out: Control of weed species after post-emergence application, IPOHE
[14] = Application rate 500 g/Ha, 100=total damage to plant, 0=no damage to plant, read-out: Control of weed species after post-emergence application, LOLPE
[15] = Application rate 500 g/Ha, 100=total damage to plant, 0=no damage to plant, read-out: Control of weed species after post-emergence application, SETFA
[16] = Application rate 500 g/Ha, 100=total damage to plant, 0=no damage to plant
[17] = Application Rate 500 g/Ha, Method A, read-out: Control of weed species after post-emergence application, AMAPA (100=total damage to plant; 0=no damage to plant)
[18] = Application Rate 500 g/Ha, Method A, read-out: Control of weed species after post-emergence application, CHEAL (100=total damage to plant; 0=no damage to plant)
[19] = Application Rate 500 g/Ha, Method A, read-out: Control of weed species after post-emergence application, DIGSA (100=total damage to plant; 0=no damage to plant)
[20] = Application Rate 500 g/Ha, Method A, read-out: Control of weed species after post-emergence application, ECHCG (100=total damage to plant; 0=no damage to plant)
[21] = Application Rate 500 g/Ha, Method A, read-out: Control of weed species after post-emergence application, ELEIN (100=total damage to plant; 0=no damage to plant)
[22] = Application Rate 500 g/Ha, Method A, read-out: Control of weed species after post-emergence application, EPHHL (100=total damage to plant; 0=no damage to plant)
[23] = Application Rate 500 g/Ha, Method A, read-out: Control of weed species after post-emergence application, IPOHE (100=total damage to plant; 0=no damage to plant)
[24] = Application Rate 500 g/Ha, Method A, read-out: Control of weed species after post-emergence application, LOLPE (100=total damage to plant; 0=no damage to plant)
[25] = Application Rate 500 g/Ha, Method A, read-out: Control of weed species after post-emergence application, SETFA (100=total damage to plant; 0=no damage to plant)

Row | SMILES | pest or weed control at 500 g/ha [1, 7] [%] | pest or weed control at 500 g/ha [2, 8] [%] | pest or weed control at 500 g/ha [3, 9] [%] | pest or weed control at 500 g/ha [4, 10] [%] | pest or weed control at 500 g/ha (Eleusine indica (ELEIN); [11]) [%] | pest or weed control at 500 g/ha [5, 12] [%] | pest or weed control at 500 g/ha [6, 13] [%] | pest or weed control at 500 g/ha (Lolium perenne (LOLPE); [14]) [%] | pest or weed control at 500 g/ha (Setaria faberi (SETFA); [15]) [%] | pest or weed control at 500 g/ha [1, 17] [%] | pest or weed control at 500 g/ha [2, 18] [%] | pest or weed control at 500 g/ha [3, 19] [%] | pest or weed control at 500 g/ha [4, 20] [%] | pest or weed control at 500 g/ha (Eleusine indica (ELEIN); [21]) [%] | pest or weed control at 500 g/ha [5, 22] [%] | pest or weed control at 500 g/ha [6, 23] [%] | pest or weed control at 500 g/ha (Lolium perenne (LOLPE); [24]) [%] | pest or weed control at 500 g/ha (Setaria faberi (SETFA); [25]) [%] | also measured
1 | Cc1cccnc1-c1cc[n+](CCC(=O)[O-])nc1 [Compound A65] | 40 | 10 | 30 | 30 | 40 | 20 | 10 | 10 | 40 |  |  |  |  |  |  |  |  |  | 
2 | N#Cc1cnc(-c2cc[n+](CCS(=O)(=O)O)nc2)nc1 [Compound A25] |  |  |  |  |  |  |  |  |  |  |  |  |  |  |  |  |  |  | Control of weed species after post-emergence application, AMAPA [1, 16]: 100; Control of weed species after post-emergence application, CHEAL [2, 16]: 60; Control of weed species after post-emergence application, DIGSA [3, 16]: 50; Control of weed species after post-emergence application, ECHCG [4, 16]: 70; Control of weed species after post-emergence application, ELEIN (Eleusine indica (ELEIN); [16]): 50; Control of weed species after post-emergence application, EPHHL [5, 16]: 40; Control of weed species after post-emergence application, IPOHE [6, 16]: 50; Control of weed species after post-emergence application, LOLPE (Lolium perenne (LOLPE); [16]): 40; Control of weed species after post-emergence application, SETFA (Setaria faberi (SETFA); [16]): 60
3 | CC(=O)c1ccnc(-c2cc[n+](CCS(=O)(=O)[O-])nc2)n1 [Compound A49] | 100 | 80 | 90 | 60 | 100 | 70 | 60 | 50 | 100 |  |  |  |  |  |  |  |  |  | 
4 | O=C(O)CC[n+]1ccc(-c2ncc(CO)cn2)cn1 [Compound A162] |  |  |  |  |  |  |  |  |  | 100 | 70 | 70 | 90 | 80 | 80 | 10 | 90 | 70 | 
5 | Cc1cc(F)cnc1-c1cc[n+](CCC(=O)O)nc1 [Compound A151] | 20 | 20 | 20 | 20 | 20 | 40 | 10 | 10 | 20 |  |  |  |  |  |  |  |  |  | 
6 | N[C@@H](CC[n+]1ccc(-c2ncccn2)cn1)C(=O)O [Compound A201, [(1S)-1-carboxy-3-(4-pyrimidin-2-ylpyridazin-1-ium-1-yl)propyl]ammonium 2,2,2-trifluoroacetate] |  |  |  |  |  |  |  |  |  | 100 | 100 | 80 | 70 | 100 | 90 | 40 | 30 | 80 | 
7 | Cc1ccc(-c2cc[n+](CCS(=O)(=O)[O-])nc2)nc1 [Compound A155] |  |  |  |  |  |  |  |  |  | 20 | 10 | 50 | 40 | 30 | 30 | 20 | 50 | 40 | 

Source: patent US20220125051A1, “PRE-HARVEST DESICCATION METHOD” (SYNGENTA CROP PROTECTION AG, priority 2019, published 2022)
